Measurements: article PMC12193833, “Toxicity Assessment and Antifungal Potential of Copper(II) and Silver(I) Complexes with 1,10-Phenanthroline-5,6-dione Against Drug-Resistant Clinical Isolates of Cryptococcus gattii and Cryptococcus neoformans” (Journal of Fungi, 2025)
Like-named read-outs stand apart in the source and are kept apart here.

Key:
[1] = tested on: C. neoformans clinical isolates; assay: MIC/MFC of test compounds, microdilution; assay type: cell-based, Cryptococcus neoformans; settings: for MIC: read-out: MIC
From the text: (§1) Six clinical isolates belonging to the Cryptococcus genus were obtained from patients who attended the Instituto Nacional de Infectologia Evandro Chagas (INI), Fundação Oswaldo Cruz (FIOCRUZ), and were kindly provided by Dr. Rodrigo Almeida-Paes (INI-FIOCRUZ). To comply with ethical standards and institutional agreements between UFRJ and FIOCRUZ, patient data were not disclosed. In this sense, the C. neoformans isolates were designated CFP00213 (213), CFP00223 (223), and CFP00350 (350), while the C. gattii isolates were labeled CFP00023 (23), CFP00025 (25), and CFP00027 (27). Before each experiment, an aliquot of the culture was transferred from Sabouraud dextrose agar (2% glucose, 1% peptone, and 0.5% yeast extract) to RPMI 1640 medium (Sigma-Aldrich, St. Louis, MO, USA), pH 7.2, buffered with 0.165 M MOPS (Sigma-Aldrich, St. Louis, MO, USA). RPMI medium induces the expression of capsular polysaccharides, the primary virulence factor of Cryptococcus cells. The cultures were incubated at 37 °C for 48 h to promote cell proliferation, stimulate metabolic activation, and enhance capsular development. Yeast cell counts were determined using a Neubauer chamber.
(§2) Following MIC determination, the MFC was assessed by inoculating 10 µL from wells showing no visible fungal growth onto Sabouraud dextrose agar. […] To further support and strengthen the evidence of the anti-Cryptococcus activity of the Cu-phendione and Ag-phendione complexes, we additionally performed MIC/MFC assays using well-characterized standard reference strains: ATCC 28957, H99, T1444 (all C. neoformans), and R265 (C. gattii).

[2] = tested on: C. gattii clinical isolates; assay: MIC/MFC of test compounds, microdilution; assay type: cell-based, Cryptococcus gattii; settings: for MIC: read-out: MIC
From the text: as §1, §2

[3] = tested on: C. neoformans reference strains (ATCC 28957, H99, T1444); assay: MIC of complexes against reference strains; assay type: cell-based, Cryptococcus neoformans
From the text: (§3) To further support and strengthen the evidence of the anti-Cryptococcus activity of the Cu-phendione and Ag-phendione complexes, we additionally performed MIC/MFC assays using well-characterized standard reference strains: ATCC 28957, […], […] (all C. neoformans), and […]).

[4] = tested on: C. gattii reference strain R265; assay: MIC of complexes against reference strain; assay type: cell-based, Cryptococcus gattii
From the text: as §3

[5] = tested on: C. neoformans or C. gattii; assay: Stability of antifungal activity (MIC repeated every six months over two years); assay type: cell-based, Cryptococcus neoformans and Cryptococcus gattii; settings: same DMSO solution, room temperature, protected from light, MIC every six months for 730 days
From the text: To evaluate the stability of the antifungal activity of the test complexes, the MIC assay was repeated every six months over a two-year period using the same Ag-phendione or Cu-phendione solution. The solutions were stored at room temperature and protected from light to maintain their chemical integrity.

[6] = tested on: Galleria mellonella larvae; assay: In vivo acute toxicity, single treatment; settings: single inoculation; for Larval survival: 125–1000 µM, 10 µL/larva, 37 °C
Procedure: (§4) In this set of experiments, G. mellonella larvae weighing approximately 0.2–0.3 g and displaying clear, uniform coloration were used. The larvae were inoculated (10 µL/larva) using an insulin syringe (BD Ultra-Fine, Franklin Lakes, NJ, USA) at the last left proleg. […] We also assessed their coloration through visual analysis as an indicator of stress levels. Throughout the experiments, the larvae were maintained at 37 °C [19, 42]. Two distinct treatment protocols were designed to evaluate the effects of the test compounds on larval survivability, as detailed below.
For the acute toxicity analysis, the test compounds were administered to the larvae in a single inoculation at concentrations ranging from 1000 to 125 μM. Each group consisted of 10 larvae, while the control group received only sterile PBS with 4% DMSO. […] The SI was calculated using the following equation: SI = G. mellonella CC50/Cryptococcus MIC.

[7] = tested on: Galleria mellonella larvae; assay: In vivo chronic toxicity, multiple treatment; settings: for Alterations in stress indicators (melanization, cocoon formation) / Chronic toxicity (larval survival monitored over seven days): 62.5 µM daily for five consecutive days; for Larval survival: daily inoculation 62.5 µM for up to five days
Procedure: as §4
For the chronic toxicity analysis, larvae were inoculated daily for five consecutive days with the test complexes (Cu-phendione or Ag-phendione) at a high concentration of 62.5 μM. Each group consisted of 10 larvae, while the control group received only sterile PBS with 4% DMSO.

[8] = tested on: hemocytes of G. mellonella larvae; assay type: in vivo, Galleria mellonella; settings: 24 h
Procedure: The hemocyte density in the hemolymph of larvae inoculated with both complexes was assessed to evaluate potential immunological changes in G. mellonella. […] To analyze hemocyte density, a ventral caudal incision was made between the last prolegs of each larva using a surgical scalpel, and 10 μL of hemolymph was collected. The hemolymph was then diluted 1:100 in 990 μL of an anticoagulant buffer solution (98 mM NaOH, 186 mM NaCl, 17 mM EDTA, and 41 mM citric acid, pH 4.5). The number of hemocytes in each dilution was subsequently counted using a Neubauer chamber (Thermo Fisher Scientific, Waltham, MA USA).

mice = tested on: mice; parameters: method as in doi:10.1039/c2tx00010e; settings: cited from earlier work; for Deaths, behavioral, dietary or body weight changes: 45 mg/kg daily for five days plus seven days observation; for AST and ALT activities vs control: 45 mg/kg daily for five days
hamsters = tested on: hamsters; parameters: method as in doi:10.1016/j.ejmcr.2022.100093; settings: 1 mg/kg five times per week for nine weeks; cited from earlier work
Sheep erythrocytes = tested on: Sheep erythrocytes
Procedure: To evaluate the hemolytic activity of the test compounds, the microdilution method was performed in PBS using 96-well cell culture plates, as described by Evans et al.. PBS containing the test compounds (phendione, Cu-phendione, and Ag-phendione) at varying concentrations (1.9–62.5 µM) was added to the wells. Sheep erythrocytes (Cultilab, Rio de Janeiro, RJ, Brazil) were diluted in PBS to a final concentration of 2% (approximately 2 × 10^8 erythrocytes) and added to each well. The final volume of each well was 200 μL. A negative control (PBS and blood) and a positive control (PBS, blood, and 1% Triton X-100) were also included. The plates were incubated at 37 °C for 24 h, then centrifuged at 500× g for 10 min at 4 °C. Following centrifugation, 100 μL of the supernatant from each well was transferred to a new 96-well microplate, and absorbance was measured using a microplate reader ([…] SkyHigh; Thermo Scientific, Waltham, MA, USA) at 415 nm. […] The average absorbance of the positive control was set as 100% hemolysis, and the percentage hemolysis of the other groups was calculated accordingly. The selectivity index (SI) was determined using the following equation: SI = erythrocyte CC50/Cryptococcus MIC.

[9] = all C. neoformans clinical isolates
[10] = all C. gattii clinical isolates

Structure (SMILES) | MFC ([1]; C. neoformans isolate 213) | MIC ([1]; C. neoformans isolate 213) | MFC ([1]; C. neoformans isolate 223) | MIC ([1]; C. neoformans isolate 223) | MFC ([1]; C. neoformans isolate 350) | MIC ([1]; C. neoformans isolate 350) | MFC [1, 9] | MIC [1, 9] | MFC ([2]; C. gattii isolate 23) | MIC ([2]; C. gattii isolate 23) | MFC ([2]; C. gattii isolate 25) | MIC ([2]; C. gattii isolate 25) | MFC ([2]; C. gattii isolate 27) | MIC ([2]; C. gattii isolate 27) | MFC [2, 10] | MIC [2, 10] | MIC ([3]; C. neoformans ATCC 28957) | MIC ([3]; C. neoformans H99) | MIC ([3]; C. neoformans T1444) | MIC [4] | other results
O=C1C(=O)c2cccnc2-c2ncccc21.O=C1C(=O)c2cccnc2-c2ncccc21.[Ag+].[O-][Cl+3]([O-])([O-])[O-] [Ag-phendione, [Ag(phendione)2]ClO4] | 25 µM | 1.56 µM | 25 µM | 1.56 µM | 25 µM | 1.56 µM | 25 µM | 1.56 µM | 12.5 µM | 1.56 µM | 12.5 µM | 1.56 µM | 12.5 µM | 1.56 µM | 12.5 µM | 1.56 µM | 0.19 µM | 0.78 µM | 0.78 µM | 0.19 µM | Stability of antifungal activity (MIC variation) [5]: No variation in MIC values; Changes in melanization or silk/cocoon production [6]: no visible changes in melanization or silk/cocoon production; Larval survival [6]: 100%; Alterations in stress indicators (melanization, cocoon formation) [7]: no alterations; Chronic toxicity (larval survival monitored over seven days) [7]: non-toxic; Larval survival [7]: 100%; Hemocyte density vs PBS control ([8]; single inoculation, any concentration tested (15.6–1000 µM)): did not significantly affect hemocyte density; Deaths, behavioral, dietary or body weight changes (mice): no deaths or behavioral, dietary, or body weight changes; AST and ALT activities vs control (mice): No significant differences; Acute toxicity: highest dose with 100% tolerance (mice): 150 mg/kg; Deaths, changes in behavior, diet or body weight (hamsters): no deaths or changes in behavior, diet, or body weight; Urea, creatinine, AST, ALT and alkaline phosphatase levels vs control (hamsters): no differences
O.O.O.O.O=C1C(=O)c2cccnc2-c2ncccc21.O=C1C(=O)c2cccnc2-c2ncccc21.O=C1C(=O)c2cccnc2-c2ncccc21.[Cu+2].[O-][Cl+3]([O-])([O-])[O-].[O-][Cl+3]([O-])([O-])[O-] [Cu-phendione, [Cu(phendione)3](ClO4)2·4H2O] | 50 µM | 3.125 µM | 50 µM | 3.125 µM | 50 µM | 3.125 µM | 50 µM | 3.125 µM | 12.5 µM | 6.25 µM | 12.5 µM | 6.25 µM | 12.5 µM | 6.25 µM | 12.5 µM | 6.25 µM | 1.56 µM | 0.78 µM | 0.78 µM | 0.19 µM | Stability of antifungal activity (MIC variation) [5]: No variation in MIC values; CC50 (Sheep erythrocytes): > 62.5 µM; CC50 ([6]; assumed, read-out: CC50 (G. mellonella larvae)): > 1000 µM; Changes in melanization or silk/cocoon production [6]: no visible changes in melanization or silk/cocoon production; Larval survival [6]: 100%; Alterations in stress indicators (melanization, cocoon formation) [7]: no alterations; Chronic toxicity (larval survival monitored over seven days) [7]: non-toxic; Larval survival [7]: 100%; Hemocyte density vs PBS control ([8]; single inoculation 15.625 µM): significant increase in hemocyte density; Hemocyte density vs PBS control ([8]; single inoculation 31.25 µM): significant increase in hemocyte density; Hemocyte density vs PBS control ([8]; single inoculation, other tested concentrations): No notable changes in hemocyte levels; Deaths, behavioral, dietary or body weight changes (mice): no deaths or behavioral, dietary, or body weight changes; AST and ALT activities vs control (mice): No significant differences; Acute toxicity: highest dose with 100% tolerance (mice): 45 mg/kg; Deaths, changes in behavior, diet or body weight (hamsters): no deaths or changes in behavior, diet, or body weight; Urea, creatinine, AST, ALT and alkaline phosphatase levels vs control (hamsters): no differences
